# Key:
# Test in all cases: relative viability (nuclei count vs DMSO), 5 days (fraction); higher = more cells survive
# [1] = compound: CCOC1=CC=CC=C1N=NC2=C(NN(C2=O)C3=NC(=CS3)C4=CC=CC=C4)C [BAM7] + COc1cccc2cc(-c3nc([C@H]4CC[C@H](C(=O)O)CC4)n4ncnc(N)c34)[nH]c12 [OSI-027] (partner 0.5 µM)
# Method in brief: (§1)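 Nuclei were stained with Hoechst during a one-step fixation (final 0.05% Triton X-100, 1% formaldehyde, 1 ug/ml Hoechst) carried out 5 days after dosing, then counted on 4× images. The cells, lung cancer lines in 1536-well plates, had been dosed by pin tool the day after seeding with one drug alone or a fixed anchor-drug dose plus five library-drug doses (not always all listed) in √10 steps. Relative viability is the nuclei count in treated wells divided by that in vehicle wells, and each value is the median of duplicate plates.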
# [2] = compound: CCOC1=CC=CC=C1N=NC2=C(NN(C2=O)C3=NC(=CS3)C4=CC=CC=C4)C [BAM7] + CS(=O)(=O)CCNCc1ccc(-c2ccc3ncnc(Nc4ccc(OCc5cccc(F)c5)c(Cl)c4)c3c2)o1 [Lapatinib] (partner 2 µM)
# Method in brief: as §1
# [3] = compound: CCOC1=CC=CC=C1N=NC2=C(NN(C2=O)C3=NC(=CS3)C4=CC=CC=C4)C [BAM7] + Nc1nc2[nH]cc(CCc3ccc(C(=O)N[C@@H](CCC(=O)O)C(=O)O)cc3)c2c(=O)[nH]1 [Pemetrexed] (partner 0.2 µM)
# Method in brief: as §1
# [4] = compound: CCOC1=CC=CC=C1N=NC2=C(NN(C2=O)C3=NC(=CS3)C4=CC=CC=C4)C [BAM7] + Nc1ncn([C@H]2C[C@H](O)[C@@H](CO)O2)c(=O)n1 [Decitabine] (partner 2 µM)
# Method in brief: as §1
# [5] = compound: CCOC1=CC=CC=C1N=NC2=C(NN(C2=O)C3=NC(=CS3)C4=CC=CC=C4)C [BAM7] + O=C(CCCCCCC(=O)Nc1ccccc1)NO [Vorinostat] (partner 1 µM)
# Method in brief: as §1
cell line,measurement,setting,value
UMC-11,relative viability,[1]; first compound 0.5 µM,0.465
same,relative viability,[1]; first compound 5 µM,0.461
same,relative viability,[1]; first compound 15.81 µM,0.461
same,relative viability,[1]; first compound 50 µM,0.487
same,relative viability,[2]; first compound 0.5 µM,1.02
same,relative viability,[2]; first compound 5 µM,0.981
same,relative viability,[2]; first compound 15.81 µM,1.12
same,relative viability,[2]; first compound 50 µM,1.15
same,relative viability,[3]; first compound 0.5 µM,0.85
same,relative viability,[3]; first compound 5 µM,0.912
same,relative viability,[3]; first compound 15.81 µM,0.847
same,relative viability,[3]; first compound 50 µM,0.839
same,relative viability,[4]; first compound 0.5 µM,0.603
same,relative viability,[4]; first compound 5 µM,0.687
same,relative viability,[4]; first compound 15.81 µM,0.618
same,relative viability,[4]; first compound 50 µM,0.635
same,relative viability,[5]; first compound 0.5 µM,0.37
same,relative viability,[5]; first compound 5 µM,0.478
same,relative viability,[5]; first compound 15.81 µM,0.469
same,relative viability,[5]; first compound 50 µM,0.362

# Source: the supplement of paper PMC10307832
